Assay results: patent US6335306B1, “Thermosensitive recording material of heat fixing type and method of fixing the same” (Oji Paper Co., Ltd., priority 1998, dated 2002)
Counter-ions that a name gives are not always drawn.

Assay: Color Developer Test Method: solvent resistance of the color image, dioctyl phthalate (Mdd)
Assay type: physicochemical
Conditions: colored portion coated with dioctyl phthalate, wiped, left standing 0.5 hour; Macbeth RD-914
Description: (§1) Thermosensitive recording paper sheet is prepared by a process which will be described below.
(§2) The above-described composition is pulverized with a paint shaker to an average particle diameter of about 1 μm.
(§3) The above-described composition is pulverized with a paint shaker to an average particle diameter of not larger than 1 μm.
(§4) The above-described composition is pulverized with a paint shaker to an average particle article diameter of not larger than 1 μm.
(§5) A coating liquid is obtained by mixing 60 parts of the dispersion A, 240 parts of the dispersion B, 80 parts of the dispersion C, and 90 parts of 10% aqueous polyvinyl alcohol solution under stirring. The coating liquid thus obtained is applied to the support so that the amount of the coating after drying would be 8.0 g/m^2 to form a thermosensitive color image-forming layer, and thereby to obtain a thermosensitive recording paper.
(§6) The sample thus obtained is printed with a coloring tester (THPMD; a product of Ohkura Electric Co., Ltd.) under conditions comprising a printing voltage of 21.7 V and printing pulse of 1.0 ms. The color density of the printed parts is determined with a Macbeth Reflection Color Density Tester RD-914 (a product of Macbeth).
(§7) The colored portion of the thermosensitive recording material thus obtained in (5) is coated with dioctyl phthalate or salad oil, which is then removed by wiping with Klinex, followed by leaving it for standing for 0.5 hour and measuring the density of the printed parts is determined with a Macbeth Reflection Color Density Tester RD-914 (a product of Macbeth).
(§8) The solvent resistance of the color image formed by using the color developer can be evaluated based on the Macbeth density (hereinafter referred to as “Mdd”) of 0.2 or higher, preferably 0.4 or higher according to the Color Developer Test Method as stated above wherein dioctyl phthalate is used. The solvent resistance of the color image formed using the color developer can be evaluated based on the Macbeth density (hereinafter referred to as “Mds”) of 0.5 or higher, preferably 0.6 or higher according to the Color Developer Test Method as stated above wherein salad oil is used.

Row | SMILES | Mdd (Macbeth density of the printed part after coating with dioctyl phthalate)
1 | O=C(Nc1ccc(Cc2ccc(NC(=O)NS(=O)(=O)c3ccccc3)cc2)cc1)NS(=O)(=O)c1ccccc1 [4,4′-bis(benzenesulfonylaminocarbonylamino)diphenyl methane] | 0.8
2 | COc1ccc(OCCOc2ccc(C(=O)O)c(O)c2)cc1 [4-(2-(p-methoxyphenyloxy)ethyloxy)salicylic acid] | 0.5
3 | Cc1ccccc1S(=O)(=O)NC(=O)Nc1ccc(Cc2ccc(NC(=O)NS(=O)(=O)c3ccccc3C)cc2)cc1 [4,4′-bis(o-toluenesulfonylaminocarbonylamino)diphenyl methane] | 1.0
4 | CC(C)(c1ccc(O)cc1)c1ccc(O)cc1 [2,2-bis(4-hydroxyphenyl)propane, reference compound] | 0.1
5 | Cc1ccc(S(=O)(=O)NC(=O)Nc2ccc(S(=O)(=O)c3ccc(NC(=O)NS(=O)(=O)c4ccc(C)cc4)cc3)cc2)cc1 [4,4′-bis(p-toluenesulfonylaminocarbonylamino)diphenylsulfone] | 0.81
6 | Cc1ccc(S(=O)(=O)NC(=O)Nc2ccc(Sc3ccc(NC(=O)NS(=O)(=O)c4ccc(C)cc4)cc3)cc2)cc1 [4,4′-bis(p-toluenesulfonylaminocarbonylamino)diphenyl sulfide] | 0.96
7 | Cc1ccc(S(=O)(=O)NC(=O)Nc2ccc(Oc3ccc(NC(=O)NS(=O)(=O)c4ccc(C)cc4)cc3)cc2)cc1 [4,4′-bis(p-toluenesulfonylaminocarbonylamino)diphenyl ether] | 1.0
8 | Cc1ccc(S(=O)(=O)NC(=O)Nc2ccc(Cc3ccc(NC(=O)NS(=O)(=O)c4ccc(C)cc4)cc3)cc2)cc1 [4,4′-bis(p-toluenesulfonylaminocarbonylamino)diphenylmethane] | 1.0
9 | Cc1ccc(S(=O)(=O)NC(=O)Nc2ccc(Oc3cccc(NC(=O)NS(=O)(=O)c4ccc(C)cc4)c3)cc2)cc1 [3,4′-bis(p-toluenesulfonylaminocarbonylamino)diphenyl ether] | 0.93
10 | Cc1ccc(S(=O)(=O)NC(=O)Nc2cccc(S(=O)(=O)c3cccc(NC(=O)NS(=O)(=O)c4ccc(C)cc4)c3)c2)cc1 [3,3′-bis(p-toluenesulfonylaminocarbonylamino)diphenylsulfone] | 0.63
11 | Cc1ccc(S(=O)(=O)NC(=O)Nc2ccc(Oc3cccc(Oc4ccc(NC(=O)NS(=O)(=O)c5ccc(C)cc5)cc4)c3)cc2)cc1 [1,3-bis(4′-(p-toluenesulfonylaminocarbonylamino)phenyloxy)benzene] | 1.0

Same assay, conditions: colored portion coated with dioctyl phthalate, wiped, left standing 0.5 hour; Macbeth RD-914; listed as 3,4′-bis(p-toluenesulfonylaminocarbonylamino)diphenyl ether

Row | SMILES | Mdd (Macbeth density of the printed part after coating with dioctyl phthalate)
12 | Cc1ccc(S(=O)(=O)NC(=O)Nc2ccc(Oc3cccc(NC(=O)NS(=O)(=O)c4ccc(C)cc4)c3)cc2)cc1 [3,4′-bis(p-toluenesulfonylaminocarbonylamino)diphenyl ether] | 1.0

Assay: log P, OECD Chemical Test Guideline No. 117, partition coefficient
Conditions: OECD Guideline No. 117
Description: The log P in the present invention is a value determined according to OECD Test, Chemical Test Guideline No. 117, Partition Coefficient; edited by Chemical Product Examination Association). The log P is the logarithm of the partition coefficient P. The higher the value of the partition coefficient, the higher the hydrophobicity; and the lower thereof, the higher the hydrophilicity.

Row | SMILES | log P
13 | C=CCOc1ccc(S(=O)(=O)c2ccc(OCC=C)cc2)cc1 [4,4′-diallyloxydiphenylsulfone] | 3.3
14 | O=C(CCCCC(=O)OCc1ccccc1Cl)OCc1ccccc1Cl [di-o-chlorobenzyl adipate] | 5.8

Same assay, conditions: n-octanol/water

Row | SMILES | chromatographic logP
15 | Cc1ccc(Oc2ccc(Oc3ccc(C)cc3)cc2)cc1 [1,4-bis(p-tolyloxy)benzene] | 3.1
16 | COc1ccc(OCCOCCOc2ccc(OC)cc2)cc1 [bis(2-(4-methoxyphenoxy)ethyl) ether] | 2.9
17 | Cc1cccc(OCCOc2cccc(C)c2)c1 [1,2-bis(m-tolyloxy)ethane] | 5
18 | CC(=O)CC(=O)Nc1ccccc1Cl [o-chloroacetoacetoanilide] | 0.2
19 | O=C(Oc1ccccc1)c1ccc2ccccc2c1O [phenyl 1-hydroxy-2-naphthoate] | 5.1
20 | c1ccc(OCCOc2ccc3ccccc3c2)cc1 [1-phenoxy-2-β-naphthoxyethane] | 5.2
21 | O=C(OCc1ccccc1)c1ccc(C(=O)OCc2ccccc2)cc1 [dibenzyl terephthalate] | 5.7
22 | Cc1ccc(OS(=O)(=O)c2c(C)cc(C)cc2C)cc1 [p-tolyl mesitylenesulfonate] | 3.1
23 | c1ccc(Cc2ccc(-c3ccccc3)cc2)cc1 [p-benzylbiphenyl] | 6.3

Same assay, conditions: n-octanol/water (OECD Test Guideline 117, HPLC method)

Row | SMILES | chromatographic logP
24 | O=C(OCc1ccccc1)C(=O)OCc1ccccc1 [dibenzyl oxalate] | 3.1
25 | O=C(Oc1ccccc1)c1ccc2ccccc2c1O [phenyl 1-hydroxy-2-naphthoate] | 5.1
26 | Cc1ccc(S(=O)(=O)Oc2ccccc2)cc1 [phenyl p-toluenesulfonate] | 3.1
27 | O=S(=O)(c1ccccc1)c1ccccc1 [diphenylsulfone] | 1.5
28 | c1ccc(OCCOc2ccccc2)cc1 [1,2-diphenoxyethane] | 3.6

Same assay, conditions: octanol/water

Row | SMILES | chromatographic logP
29 | Cc1ccc(CCc2ccc(C)c(C)c2)cc1C [1,2-bis(3,4-dimethylphenyl)ethane] | 7.8
30 | c1ccc(-c2cccc(-c3ccccc3)c2)cc1 [m-terphenyl] | 6.16

Assay: Color Developer Test Method: solvent resistance of the color image, salad oil (Mds)
Assay type: physicochemical
Conditions: colored portion coated with salad oil, wiped, left standing 0.5 hour; Macbeth RD-914
Description: as §1, §2, §3, §4, §5, §6, §7, §8

Row | SMILES | Mds (Macbeth density of the printed part after coating with salad oil)
31 | Cc1ccc(S(=O)(=O)NC(=O)Nc2ccc(NC(=O)NS(=O)(=O)c3ccc(C)cc3)cc2)cc1 [1,4-bis(p-toluenesulfonylaminocarbonylamino)benzene] | 0.84
32 | Cc1ccc(S(=O)(=O)NC(=O)Nc2cccc3cccc(NC(=O)NS(=O)(=O)c4ccc(C)cc4)c23)cc1 [1,8-bis(p-toluenesulfonylaminocarbonylamino)naphthalene] | 0.73
33 | Cc1ccc(S(=O)(=O)NC(=O)Nc2cccc(NC(=O)NS(=O)(=O)c3ccc(C)cc3)c2)cc1 [1,3-bis(p-toluenesulfonylaminocarbonylamino)benzene] | 1.2
34 | Cc1ccc(S(=O)(=O)NC(=O)Nc2cccc3c(NC(=O)NS(=O)(=O)c4ccc(C)cc4)cccc23)cc1 [1,5-bis(p-toluenesulfonylaminocarbonylamino)naphthalene] | 1.05
35 | O=S(=O)(c1ccccc1)c1ccc(O)c(S(=O)(=O)c2ccccc2)c1 [2,4-bis(phenylsulfonyl)phenol] | 0.6
36 | O=C(Nc1ccc(Cc2ccc(NC(=O)NS(=O)(=O)c3cccc4ccccc34)cc2)cc1)NS(=O)(=O)c1cccc2ccccc12 [4,4′-bis(1-naphthalenesulfonylaminocarbonylamino) diphenyl methane] | 0.5
